Source: patent US12578331B2, “Monolayer of PBMCs or bone-marrow cells and uses thereof” (Mobius Biotechnology GmbH, priority 2014, dated 2026)

Key:
[1] = tested on: CD34+ or pSTAT5+ cells; assay: Personalized chemotherapy screen in PBMC monolayer of patients with myeloproliferative neoplasm / primary myelofibrosis: viability of CD34+ or pSTAT5+ cells; assay type: cell-based, human
Method: Method: PBMCs were cultured, fixed and stained as to protocol outlined in the above examples. 384-well plates were imaged using automated confocal microscope in 4-separate channels. We stained CD34-APC, pSTAT5-PE, GFP viability maker, and a DNA binding nuclear stain. Patient material was cultured on drugs for 18 hours before the addition of the viability marker. These images contained both clonal blasts (almost all CD34+ cells that are present in the peripheral blood,) activated cells (pSTAT5+ cells,) as well as inherently healthy cells from the same donor. […] PBMCs from peripheral blood of a patient diagnosed with primary myelofibrosis were purified over a ficol destiny gradient as described above following manufacture directions. The cells were plated as to the protocol in this application in 384-well black plastic imaging plates (corning) containing 350 FDA approved drugs in DMSO at 10 uM. The cells were plated at 20.000 cell/well in 50 ul of RPMI supplemented with 5% FCS 0.1% Pen/strep. The cells were incubated overnight and a viability dye was added (fixable live/dead green, Invitrogen following manufacture directions). The cells were fixed and permeablized in PBS containing 2% formaldehyde with 0.1% Tween-x114 for 10 minute at room temperature. The solution was then replaced with PBS containing antibody against CD34 and pSTAT5 (BD biosciences) for 1 hour. The solution was then replaced with PBS containing DAPI at manufacture recommended concentration. The plates were imaged at 10× on an Operetta (PE) automated confocal microscope in four channels using band-pass filter light separation (DAPI, GFP, PE, APC). Using an image analysis pipeline, the sensitivity of the cancer cells (CD34 and pSTAT5 positive) to each drug was compared to the sensitivity on the healthy cells (NOT CD34 and pSTAT5 positive). All results were normalized to the control, DMSO alone.

[2] = tested on: primary myelofibrosis (PMF)-patients; assay: Clinical treatment of primary myelofibrosis patients already on Ruxolitinib with added Azacitidine; assay type: in vivo, human
Method: PBMCs from peripheral blood of a patient diagnosed with primary myelofibrosis were purified over a ficol destiny gradient as described above following manufacture directions. The cells were plated as to the protocol in this application in 384-well black plastic imaging plates (corning) containing 350 FDA approved drugs in DMSO at 10 uM. The cells were plated at 20.000 cell/well in 50 ul of RPMI supplemented with 5% FCS 0.1% Pen/strep. The cells were incubated overnight and a viability dye was added (fixable live/dead green, Invitrogen following manufacture directions). The cells were fixed and permeablized in PBS containing 2% formaldehyde with 0.1% Tween-x114 for 10 minute at room temperature. The solution was then replaced with PBS containing antibody against CD34 and pSTAT5 (BD biosciences) for 1 hour. The solution was then replaced with PBS containing DAPI at manufacture recommended concentration. The plates were imaged at 10× on an Operetta (PE) automated confocal microscope in four channels using band-pass filter light separation (DAPI, GFP, PE, APC). Using an image analysis pipeline, the sensitivity of the cancer cells (CD34 and pSTAT5 positive) to each drug was compared to the sensitivity on the healthy cells (NOT CD34 and pSTAT5 positive). All results were normalized to the control, DMSO alone. […]

Structure (SMILES): Nc1ncn([C@@H]2O[C@H](CO)[C@@H](O)[C@H]2O)c(=O)n1 [Azacitidine]
- viability of cells stained for CD34 or pSTAT5 ([1]; MPN patient PBMCs, approximately 350 compounds, 18 hours on drugs, FIG. 6): decreased the viability of cells expressing the biomarkers
- titration: viability of CD34+ cells compared to healthy cells and to DMSO ([1]; same patient, FIG. 7): concentration dependent effects were seen
- rank among compounds reducing percentage of viable cells expressing CD34 or pSTAT5 ([1]; two patients with early PMF or PMF, both treated with Ruxolitinib at the time of Pharmacoscopy, FIG. 10): Top drug or highly enriched drug
- number of diseased cells in patient ([2]; patient undergoing treatment using Ruxolitinib, Azacitidine additionally used, FIG. 12D): significantly reduced the number of diseased cells
- clinical response of patients ([2]; two PMF patients already on Ruxolitinib (Jakavi) treated with Azacitidine): responding well
